pEC50, pIC50: −log10 of the molar value.
Assays:
Type in all cases: cell-based
MEIS1 gene expression [1] = experiment: Inhibition of MEIS1 gene expression in human tumor cells (qRT-PCR), MV-4-11; settings: MV4-11, MV-4-11 (carrying MLL-AF4), 48 hours of incubation, relative MEIS1 gene expression vs GAPDH, read-out: MV-4-11 MEISI EC50
Summary of the method: (§1)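 MV-4-11 (MLL-AF4; IMDM, 10% FBS), MOLM-13 (MLL-AF9) and OCI-AML3 (NPM1c) (RPMI-1640, 20% FBS) seeded at 100,000 cells/well and treated 48 h with serially diluted compound. MEIS1 mRNA measured by one-step probe qRT-PCR from total RNA, triplicates, GAPDH primer/probe included; EC50 for inhibition of relative MEIS1 expression.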

MEIS1 gene expression [2] = experiment: Inhibition of MEIS1 gene expression in human tumor cells (qRT-PCR), OCI-AML3; settings: OCI-AML-3, OCI-AML3 (carrying NPM1c), 48 hours of incubation, relative MEIS1 gene expression vs GAPDH
From the text: Experimental Example 3: Evaluation of Inhibitory Activity of Compounds Against MEISI Gene Expression in Human Tumor Cells
The effect of test samples on MEIS1 gene expression in vitro cultured human leukemia cells MV-4-11 (carrying MLL-AF4), MOLM-13 (carrying MLL-AF9), and OCI-AML3 (carrying NPM1c) was studied.
• Human acute lymphoblastic leukemia cells MV-4-11, purchased from American Type Culture Collection, Catalog Number: CRL-9591; • Human acute myeloid leukemia cells MOLM-13, purchased from COBIOER BIOSCIENCES CO., LTD, Catalog Number: CBP60678; • Human acute myeloid leukemia cells OCI-AML3, purchased from COBIOER BIOSCIENCES CO., LTD, Catalog Number: CBP60817; • MEIS1 Primer/Probe, purchased from IDT, Catalog Number: 40831613; and • GAPDH Primer/Probe, purchased from IDT, Catalog Number: 22214836.
MV-4-11 cells were cultured in an IMDM medium containing 10% fetal bovine serum, or MOLM-13 and OCI-AML3 cells were cultured in an RPMI-1640 medium containing 20% fetal bovine serum, each supplemented with 100 U·mL^-1 penicillin and 100 µg·mL^-1 streptomycin. These cells were cultured at 37°C with 5% CO2. The suspensions of individual cell lines were prepared in their respective media and seeded into 48-well plates at a density of 100,000 cells/well. On the day of the experiment, a compound stock solution was diluted in a 6-fold gradient using DMSO. Each gradient-diluted stock solution was then further diluted 250-fold with a complete medium to prepare a series of working solutions at different concentrations. Next, 250 µL of working solution (containing the complete medium with a 2-fold serial concentration of the test compound or a positive control compound, or containing a control complete medium) was added to each well. After 48 hours of incubation, cells from the 48-well plate were collected into 1 mL centrifuge tubes, centrifuged at 1000 rpm for 5 minutes, and the complete medium was removed. Cells were washed twice with 1 mL PBS and centrifuged to remove PBS. Total RNA was extracted using the RNeasy Mini Kit (250) (QIAGEN, 74106). The threshold cycle (Ct) value for gene expression was determined using the HiScript II U+ One Step qRT-PCR Probe Kit (Vazyme) (Vazyme, Q223-01), with 3 replicates per sample. The prepared reaction mixture was placed in an ABI 7500 real-time PCR instrument, and the reaction proceeded following the procedures below. [formula]
Next, for the relative MEIS1 gene expression, the concentration (EC50) that inhibits 50% of relative MEIS1 gene expression was calculated using GraphPad Prism 8 software.

MEIS1 gene expression [3] = experiment: Inhibition of MEIS1 gene expression in human tumor cells (qRT-PCR), MOLM-13; settings: MOLM-13 (carrying MLL-AF9), 48 hours of incubation, relative MEIS1 gene expression vs GAPDH
Summary of the method: as §1

[4] = test system: MV-4-11 (carrying MLL-AF4); experiment: Inhibition of proliferation of human tumor cells (Alamar Blue, 7 days), MV-4-11; settings: Homo sapiens, MV4-11, 168 h, MV-4-11 cells (carrying MLL-AF4), method calls the value GI50
Summary of the method: (§2)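 Suspension cells were plated, dosed the same day with a graded compound series, and incubated seven days at 37°C under 5% CO2. Growth was then measured by Alamar Blue fluorescence, and the concentration halving proliferation (GI50) was calculated relative to Day 0 and Day 7 vehicle controls.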

[5] = test system: MOLM-13 (carrying MLL-AF9); experiment: Inhibition of proliferation of human tumor cells (Alamar Blue, 7 days), MOLM-13; settings: Homo sapiens, 168 h, MOLM-13 cells (carrying MLL-AF9), method calls the value GI50
Summary of the method: as §2

KG-1a (wild-type MLL) = experiment: Inhibition of proliferation of human tumor cells (Alamar Blue, 7 days), KG-1a control cell line; settings: 168 h, KG-1a cells (wild-type MLL, control cell line), method calls the value GI50
Summary of the method: as §2

## CCN(C(=O)c1cc(F)ccc1-c1cc(C2CN([C@H](CCCN3CCN(C(C)=O)CC3)C(C)C)C2)cn2c(C)ncc12)C(C)C [Example 311-2, 2-(6-{1-[(3R)-6-(4-acetylpiperazin-1-yl)-2-methylhexan-3-yl]azacyclobutan-3-yl}-3-methylimidazo[1,5-a]pyridin-8-yl)-N-ethyl-5-fluoro-N-(isopropyl)benzamide]
MEIS1 gene expression [1]
  pEC50: 7.72
MEIS1 gene expression [2]
  pEC50: 7.64
MEIS1 gene expression [3]
  pEC50: 7.96
[4]
  pIC50: 8.33
[5]
  pIC50: 7.59

## Cc1nc(F)c2c(-c3ccc(F)cc3C(=O)N3CCOC[C@H]3C)cc(C3CN([C@H](CCCN4CCC[C@H](O)C4)C(C)C)C3)cn12 [Example 293]
KG-1a (wild-type MLL)
  pIC50: 4.70
MEIS1 gene expression [1]
  pEC50: 7.64
MEIS1 gene expression [2]
  pEC50: 7.51
MEIS1 gene expression [3]
  pEC50: 8.04
[4]
  pIC50: 8.70
[5]
  pIC50: 7.62

## CC(=O)N1CCC([C@H](C)N2CC(c3cc(-c4ccc(F)cc4C(=O)N4CCOC[C@H]4C)c4c(F)nc(C)n4c3)C2)CC1 [Example 257-2, 1-{4-[(1S)-1-[3-(1-fluoro-8-{4-fluoro-2-[(3R)-3-methylmorpholin-4-carbonyl]phenyl}-3-methylimidazo[1,5-a]pyridin-6-yl)azacyclobutan-1-yl]ethyl]piperidin-1-yl}ethan-1-one]
KG-1a (wild-type MLL)
  pIC50: 4.70
MEIS1 gene expression [1]
  pEC50: 7.72
MEIS1 gene expression [2]
  pEC50: 7.48
MEIS1 gene expression [3]
  pEC50: 7.82
[4]
  pIC50: 7.77
[5]
  pIC50: 7.51

## CCN1CCN(CCC[C@H](C(C)C)N2CC(c3cc(-c4ccc(F)cc4C(=O)N4CCOC[C@H]4C)c4c(F)nc(C)n4c3)C2)CC1 [Example 277]
KG-1a (wild-type MLL)
  pIC50: 4.70
MEIS1 gene expression [1]
  pEC50: 8.19
MEIS1 gene expression [2]
  pEC50: 7.92
MEIS1 gene expression [3]
  pEC50: 8.48
[4]
  pIC50: 8.80
[5]
  pIC50: 8.14

## COC1CCN(CCC[C@H](C(C)C)N2CC(c3cc(-c4ccc(F)cc4C(=O)N4CCOC[C@H]4C)c4c(F)nc(C)n4c3)C2)CC1 [Example 204, (3R)-4-[5-fluoro-2-(1-fluoro-6-{1-[(3R)-6-(4-methoxypiperidin-1-yl)-2-methylhexan-3-yl]azacyclobutan-3-yl}-3-methylimidazo[1,5-a]pyridin-8-yl)benzoyl]-3-methylmorpholine]
KG-1a (wild-type MLL)
  pIC50: 4.74
MEIS1 gene expression [1]
  pEC50: 7.82
MEIS1 gene expression [2]
  pEC50: 7.89
MEIS1 gene expression [3]
  pEC50: 8.37
[4]
  pIC50: 8.55
[5]
  pIC50: 7.95

## Cc1ncc2c(-c3ccc(F)cc3C(=O)N3CCOC[C@H]3C)cc(C3CN([C@H](CCCN4CCN(C)CC4)C(C)C)C3)cn12 [Example 323-2, (3R)-4-[5-fluoro-2-(3-methyl-6-{1-[(3R)-2-methyl-6-(4-methylpiperazin-1-yl)hexan-3-yl]azacyclobutan-3-yl}imidazo[1,5-a]pyridin-8-yl)benzoyl]-3-methylmorpholine]
MEIS1 gene expression [1]
  pEC50: 8.07
MEIS1 gene expression [2]
  pEC50: 7.77
MEIS1 gene expression [3]
  pEC50: 8.08
[4]
  pIC50: 8.62
[5]
  pIC50: 7.82

## Cc1nc(F)c2c(-c3ccc(F)cc3C(=O)N3CCOC[C@H]3C)cc(C3CN([C@H](CCCN4CCC(F)CC4)C(C)C)C3)cn12 [Example 314]
MEIS1 gene expression [1]
  pEC50: 7.89
MEIS1 gene expression [2]
  pEC50: 8.05
MEIS1 gene expression [3]
  pEC50: 8.47
[4]
  pIC50: 8.96
[5]
  pIC50: 8.14

## Cc1nc(F)c2c(-c3ccc(F)cc3C(=O)N3CCOC[C@H]3C)cc(C3CN([C@H](CCCN4CCN(C)CC4)C(C)C)C3)cn12 [Example 275, (3R)-4-[5-fluoro-2-(1-fluoro-3-methyl-6-{1-[(3R)-2-methyl-6-(4-methylpiperazin-1-yl)hexan-3-yl]azacyclobutan-3-yl}imidazo[1,5-a]pyridin-8-yl)benzoyl]-3-methylmorpholine]
KG-1a (wild-type MLL)
  pIC50: 4.70
MEIS1 gene expression [1]
  pEC50: 8.08
MEIS1 gene expression [2]
  pEC50: 7.80
MEIS1 gene expression [3]
  pEC50: 8.11
[4]
  pIC50: 8.59
[5]
  pIC50: 8.03
